Measured values as given in US11827637B2, “Azaindole derivatives and their use as ERK kinase inhibitors” (AGV Discovery, priority 2022, dated 2023).

Columns and labels:
[1] = tested on: A375 cells (malignant melanoma); experiment: Cell line proliferation assay (MTT, A375); type: cell-based; conditions: Homo sapiens, A-375, 72 hours
Experimental: A cell line assay was used to determine the capacity of compounds to inhibit cell proliferation. A375 cells (malignant melanoma) were grown to near 80% confluence and seeded at 3000 cells per 100 μl per well in DMEM with 10% FBS in 96-well flat bottom plates. Cells were incubated for 24 hours at 37° C. under 5% CO2. 100 μl compound solutions were added to cells and incubated for 72 hours at 37° C. Total volume of media was 200 μl per well. Compounds were screened in 0.15% DMSO (final) using 10 titration points in duplicate. Negative control wells consisted of vehicle only (0.15% DMSO in 10% FBS DMEM). After 72 hours of compound treatment, SDS 1% (final) was added to positive control wells for 15 minutes at 37° C. Then, medium was discarded and replaced by 100 μl per well of a MTT solution (3-[4.5-dimethylthiazol-2-yl]-2.5-diphenyltetrazolium bromide) (Sigma, Cat #M5655) at 0.5 mg/ml in 10% FBS DMEM. Cells were incubated for 4 hours at 37° C. MTT reaction was stopped and homogenized by the addition of 100 μl per well of SDS 10% 0.01M HCl. After 16 hours at 37° C., absorbance was measured at 570 nm in a Bio-Tek plate reader (PowerWave HT). […] Analysis was performed using GraphPad Prism software.

[2] = molecular target: T1, ERK2 (MAPK1) (Homo sapiens, UniProt P28482); experiment: ERK2 (MAPK1) enzymatic assay (Z′-Lyte); type: biochemical
T1 construct: purchased Life technologies
T1 sequence (P28482 whole entry): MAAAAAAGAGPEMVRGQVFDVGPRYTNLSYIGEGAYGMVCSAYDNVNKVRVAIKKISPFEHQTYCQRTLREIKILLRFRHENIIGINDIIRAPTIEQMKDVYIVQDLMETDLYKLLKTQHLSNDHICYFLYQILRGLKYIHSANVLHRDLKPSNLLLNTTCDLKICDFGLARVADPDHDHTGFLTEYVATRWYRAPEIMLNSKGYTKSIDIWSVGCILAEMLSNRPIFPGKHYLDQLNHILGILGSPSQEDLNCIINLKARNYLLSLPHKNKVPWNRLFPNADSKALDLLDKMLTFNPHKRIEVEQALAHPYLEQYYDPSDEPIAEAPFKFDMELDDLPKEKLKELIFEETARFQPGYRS
Experimental: To assess the capacity of compounds to inhibit ERK2 enzymatic activity, Z′-Lyte biochemical assay from Life technologies was used according to manufacturer's instructions. Briefly, black 384-well plates containing 100 nl of 100× compound solution in 100% DMSO, 2.4 μl kinase buffer, 5 μl 2×MAPK1 (ERK2)/Ser/Thr 03 mixture and 2.5 μl 4×ATP solution were used. Plates were shaken for 30 seconds and incubated for 60 minutes at room temperature. Then, 5 μl of a 1:1024 dilution of Development Reagent A was added. Plates were shaken for 30 seconds and incubated for 60 minutes at room temperature. A plate reader was used to read fluorescence. […] Kinase buffer consisted of 50 mM HEPES pH 7.5, 0.01% BRIJ-35, 10 mM MgCl2, 1 mM EGTA.

[3] = molecular target: 58 kinases; experiment: Kinase panel (Z′-Lyte, Adapta/Lanthascreen), 58 kinases; type: biochemical; conditions: for Kinase panel @500 nM hits > 50%: number of the 58 kinases inhibited more than 50% at 500 nM; for Kinase panel @500 nM hits > 80%: number of the 58 kinases inhibited more than 80% at 500 nM
Experimental: To assess the kinase selectivity of compounds, Z′-Lyte biochemical assay, and Adapta/Lanthascreen binding assays from Life technologies were used according to manufacturer's instructions. Pourcentages of inhibition at 500 nM of test compounds were performed towards 58 kinases: ABL1, ACVR1B (ALK4), AKT2 (PKB beta), AMPK (A1/132/G3), AURKA (Aurora A), AXL, BRAF, BTK, CAMK2B (CaMKII beta), CDK2/cyclin A, CHEK1 (CHK1), CLK1, CSNK1A1 (CK1 alpha 1), CSNK2A1 (CK2 alpha 1), DAPK3 (ZIPK), DYRK1A, EGFR (ErbB1), EPHB3, ERBB2 (HER2), FGFR2, FLT3, FRAP1 (mTOR), GSK3B (GSK3 beta), IGF1R, IKBKB (IKK beta), INSR, IRAK4, JAK2, KDR (VEGFR2), KIT, LCK, MAP2K1 (MEK1), MAPK10 (JNK3), MAPK11 (p38 beta), MAPKAPK2, MARK2, MET (cMet), NEK2, NTRK1 (TRKA), PAK2 (PAK65), PDGFRB (PDGFR beta), PDK1 Direct, PHKG2, PIK3CA/PIK3R1 (p110 alpha/p85 alpha), PIM1, PLK1, PRKACA (PKA), PRKCA (PKC alpha), PTK2 (FAK), RET, ROCK1, RPS6KA1 (RSK1), RPS6KB1 (p70S6K), SRC, STK3 (MST2), SYK, TEK (Tie2), TYRO3 (RSE).

| Structure (SMILES) | IC50 [1] | also measured |
| --- | --- | --- |
| Cc1cc(-c2c[nH]c3ncc(N4CCOCC4)cc23)cc(=O)n1[C@H](CN(C)C)c1cccc(Cl)c1 [Compound no20 (S), (S)-1-(1-(3-chlorophenyl)-2-(dimethylamino)ethyl)-6-methyl-4-(5-morpholino-1H-pyrrolo[2,3-b]pyridin-3-yl)pyridin-2(1H)-one] | 0.825 µM | – |
| CN(CC1CC1)C[C@H](c1cccc(Cl)c1)n1ccc(-c2c[nH]c3ncc(N4CCOCC4)cc23)cc1=O [Compound no16 (S), (S)-1-(1-(3-chlorophenyl)-2-((cyclopropylmethyl)(methyl)amino)ethyl)-4-(5-morpholino-1H-pyrrolo[2,3-b]pyridin-3-yl)pyridin-2(1H)-one] | 0.162 µM | – |
| CN(C)C[C@H](c1cccc(Cl)c1)n1cc(F)c(-c2c[nH]c3ncc(N4CCOCC4)cc23)cc1=O [Compound no19 (S), (S)-1-(1-(3-chlorophenyl)-2-(dimethylamino)ethyl)-5-fluoro-4-(5-morpholino-1H-pyrrolo[2,3-b]pyridin-3-yl)pyridin-2(1H)-one] | 0.303 µM | – |
| CN(C)C[C@H](c1cccc(I)c1)n1ccc(-c2c[nH]c3ncc(N4CCOCC4)cc23)cc1=O [Compound no6 (S), (S)-1-(2-(dimethylamino)-1-(3-iodophenyl)ethyl)-4-(5-morpholino-1H-pyrrolo[2,3-b]pyridin-3-yl)pyridin-2(1H)-one] | 0.042 µM | IC50 [2]: 0.0024 µM |
| CN(CC#N)C[C@H](c1cccc(Cl)c1)n1ccc(-c2c[nH]c3ncc(N4CCOCC4)cc23)cc1=O [Compound no12 (S), (S)-2-((2-(3-chlorophenyl)-2-(4-(5-morpholino-1H-pyrrolo[2,3-b]pyridin-3-yl)-2-oxopyridin-1(2H)-yl)ethyl)(methyl)amino)acetonitrile] | 0.007 µM | – |
| CN(C)C[C@H](c1cccc(Cl)c1)n1ccc(-c2c[nH]c3ncc(N4CCOCC4)c(F)c23)cc1=O [Compound no22 (S), (S)-1-(1-(3-chlorophenyl)-2-(dimethylamino)ethyl)-4-(4-fluoro-5-morpholino-1H-pyrrolo[2,3-b]pyridin-3-yl)pyridin-2(1H)-one] | 0.077 µM | IC50 [2]: 0.004 µM |
| CN(CC(F)F)C[C@H](c1cccc(Cl)c1)n1ccc(-c2c[nH]c3ncc(N4CCOCC4)cc23)cc1=O [Compound no11 (S), (S)-1-(1-(3-chlorophenyl)-2-((2,2-difluoroethyl)(methyl)amino)ethyl)-4-(5-morpholino-1H-pyrrolo[2,3-b]pyridin-3-yl)pyridin-2(1H)-one] | 0.229 µM | – |
| O=c1cc(-c2c[nH]c3ncc(N4CCOCC4)cc23)ccn1[C@H](CN1CC1)c1cccc(Cl)c1 [Compound no24 (S), (S)-1-(2-(aziridin-1-yl)-1-(3-chlorophenyl)ethyl)-4-(5-morpholino-1H-pyrrolo[2,3-b]pyridin-3-yl)pyridin-2(1H)-one] | 0.096 µM | – |
| CN(C[C@H](c1cccc(Cl)c1)n1ccc(-c2c[nH]c3ncc(N4CCOCC4)cc23)cc1=O)C1CC1 [Compound no14 (S), (S)-1-(1-(3-chlorophenyl)-2-(cyclopropyl(methyl)amino)ethyl)-4-(5-morpholino-1H-pyrrolo[2,3-b]pyridin-3-yl)pyridin-2(1H)-one] | 0.42 µM | – |
| CNC[C@H](c1ccc(Cl)c(Cl)c1)n1ccc(-c2c[nH]c3ncc(N4CCOCC4)cc23)cc1=O [Comparative compound B (S), (S)-1-(1-(3,4-dichlorophenyl)-2-(methylamino)ethyl)-4-(5-morpholino-1H-pyrrolo[2,3-b]pyridin-3-yl)pyridin-2(1H)-one, reference compound] | – | Kinase panel @500 nM hits > 50% [3]: 20/58; Kinase panel @500 nM hits > 80% [3]: 10/58 |
| COCCN(C)C[C@H](c1cccc(Cl)c1)n1ccc(-c2c[nH]c3ncc(N4CCOCC4)cc23)cc1=O [Compound no13 (S), (S)-1-(1-(3-chlorophenyl)-2-((2-methoxyethyl)(methyl)amino)ethyl)-4-(5-morpholino-1H-pyrrolo[2,3-b]pyridin-3-yl)pyridin-2(1H)-one] | 0.262 µM | – |
| CCN(C)C[C@H](c1cccc(Cl)c1)n1ccc(-c2c[nH]c3ncc(N4CCOCC4)cc23)cc1=O [Compound no15 (S), (S)-1-(1-(3-chlorophenyl)-2-(ethyl(methyl)amino)ethyl)-4-(5-morpholino-1H-pyrrolo[2,3-b]pyridin-3-yl)pyridin-2(1H)-one] | 0.051 µM | IC50 [2]: 0.0035 µM |
| CN(C)C[C@H](c1cccc(Cl)c1)n1ccc(-c2c[nH]c3ncc(N4CCOC(C(F)(F)F)C4)cc23)cc1=O (stereo partly drawn) [Compound no21 (S), 1-((S)-1-(3-chlorophenyl)-2-(dimethylamino)ethyl)-4-(5-(2-(trifluoromethyl)morpholino)-1H-pyrrolo[2,3-b]pyridin-3-yl)pyridin-2(1H)-one] | 0.199 µM | – |
| NC[C@H](c1cccc(Cl)c1)n1ccc(-c2c[nH]c3ncc(N4CCOCC4)cc23)cc1=O [Comparative compound A (S), (S)-1-(2-amino-1-(3-chlorophenyl)ethyl)-4-(5-morpholino-1H-pyrrolo[2,3-b]pyridin-3-yl)pyridin-2(1H)-one, reference compound] | – | Kinase panel @500 nM hits > 50% [3]: 26/58; Kinase panel @500 nM hits > 80% [3]: 15/58 |
| CN(C)C[C@H](c1cccc(C(F)(F)F)c1)n1ccc(-c2c[nH]c3ncc(N4CCOCC4)cc23)cc1=O [Compound no26 (S), (S)-1-(2-(dimethylamino)-1-(3-(trifluoromethyl)phenyl)ethyl)-4-(5-morpholino-1H-pyrrolo[2,3-b]pyridin-3-yl)pyridin-2(1H)-one] | 0.015 µM | – |
| CN(C)CC(c1cc(F)cc(I)c1)n1ccc(-c2c[nH]c3ncc(N4CCOCC4)cc23)cc1=O (racemic) [Compound no10 (racemate), 1-(2-(dimethylamino)-1-(3-fluoro-5-iodophenyl)ethyl)-4-(5-morpholino-1H-pyrrolo[2,3-b]pyridin-3-yl)pyridin-2(1H)-one] | – | IC50 [2]: 0.0051 µM |
| CN(C)C[C@H](c1cc(F)cc(F)c1)n1ccc(-c2c[nH]c3ncc(N4CCOCC4)cc23)cc1=O [Compound no18 (S), (S)-1-(1-(3,5-difluorophenyl)-2-(dimethylamino)ethyl)-4-(5-morpholino-1H-pyrrolo[2,3-b]pyridin-3-yl)pyridin-2(1H)-one] | 0.371 µM | – |
| CN(C)C[C@H](c1cc(F)cc(I)c1)n1ccc(-c2c[nH]c3ncc(N4CCOCC4)cc23)cc1=O [Compound no10 (S), (S)-1-(2-(dimethylamino)-1-(3-fluoro-5-iodophenyl)ethyl)-4-(5-morpholino-1H-pyrrolo[2,3-b]pyridin-3-yl)pyridin-2(1H)-one] | 0.116 µM | – |
| CN(C)CC(c1cc(F)cc(Cl)c1)n1ccc(-c2c[nH]c3ncc(N4CCOCC4)cc23)cc1=O (racemic) [Compound no9 (racemate), 1-(1-(3-Chloro-5-fluorophenyl)-2-(dimethylamino)ethyl)-4-(5-morpholino-1H-pyrrolo[2,3-b]pyridin-3-yl)pyridin-2(1H)-one] | – | IC50 [2]: 0.0077 µM |
| CN(C)C[C@H](c1cccc(C#N)c1)n1ccc(-c2c[nH]c3ncc(N4CCOCC4)cc23)cc1=O [Compound no25 (S), (S)-3-(2-(dimethylamino)-1-(4-(5-morpholino-1H-pyrrolo[2,3-b]pyridin-3-yl)-2-oxopyridin-1(2H)-yl)ethyl)benzonitrile] | 0.156 µM | – |
| CN(C)C[C@H](c1cc(F)cc(Cl)c1)n1ccc(-c2c[nH]c3ncc(N4CCOCC4)cc23)cc1=O [Compound no9 (S), (S)-1-(1-(3-chloro-5-fluorophenyl)-2-(dimethylamino)ethyl)-4-(5-morpholino-1H-pyrrolo[2,3-b]pyridin-3-yl)pyridin-2(1H)-one] | 0.188 µM | – |
